Measurements published in ChEMBL document CHEMBL4138267, “Synthesis and SAR of 1,2,3,4-Tetrahydroisoquinoline-Based CXCR4 Antagonists” (ACS Med Chem Lett, 2018).

Legend:
[1] = Permeability of the compound at pH 7.4 by PAMPA; format: ADME
[2] = Permeability of the compound at pH 5.5 by PAMPA; format: ADME

permeability [1]	permeability [2]	SMILES
Impermeable	Impermeable	NCCCCN(Cc1nccc2ccccc12)C[C@H]1Cc2ccccc2CN1
Impermeable	Impermeable	NCCCCN(C[C@H]1Cc2ccccc2CN1)[C@H]1CCCc2cccnc21
Impermeable	Impermeable	C=Cc1cccnc1CN(CCCCN)C[C@H]1Cc2ccccc2CN1
Impermeable	Impermeable	Cc1ccc([C@H](C)N(CCCCN)C[C@H]2Cc3ccccc3CN2)nc1
Impermeable	Impermeable	Cc1ccc(CN(CCCCN)C[C@H]2Cc3ccccc3CN2)nc1
Impermeable	Impermeable	C[C@@H](c1ccccn1)N(CCCCN)C[C@H]1Cc2ccccc2CN1
Impermeable	Impermeable	NCCCCN(Cc1ccc(C(F)(F)F)cn1)C[C@H]1Cc2ccccc2CN1
Impermeable	Impermeable	NCCCCN(Cc1ccccn1)C[C@H]1Cc2ccccc2CN1
Impermeable	Impermeable	Cc1cc(F)cnc1CN(CCCCN)C[C@H]1Cc2ccccc2CN1
Impermeable	Impermeable	NCCCCN(Cc1ncccc1C(F)(F)F)C[C@H]1Cc2ccccc2CN1
Impermeable	Impermeable	Cc1ccnc(CN(CCCCN)C[C@H]2Cc3ccccc3CN2)c1
Impermeable	Impermeable	Cc1cccc(CN(CCCCN)C[C@H]2Cc3ccccc3CN2)n1
Impermeable	Impermeable	NCCCCN(Cc1ncccc1Cl)C[C@H]1Cc2ccccc2CN1
Impermeable	Impermeable	Cc1cnc2c(c1)CCC[C@@H]2N(CCCCN)C[C@H]1Cc2ccccc2CN1
Impermeable	Impermeable	NCCCCN(Cc1ncccc1F)C[C@H]1Cc2ccccc2CN1
Impermeable	Impermeable	NCCCCN(Cc1cc2ccccc2cn1)C[C@H]1Cc2ccccc2CN1

permeability [1]	permeability [2]	SMILES
Impermeable	Impermeable	Cc1nc(CN(CCCCN)C[C@H]2Cc3ccccc3CN2)cs1
Impermeable	Impermeable	NCCCCN(Cc1ncccc1C1CC1)C[C@H]1Cc2ccccc2CN1
Impermeable	Impermeable	NCCCCN(C[C@H]1Cc2ccccc2CN1)[C@H]1CCOc2cccnc21
Impermeable	Impermeable	NCCCCN(Cc1cscn1)C[C@H]1Cc2ccccc2CN1
Impermeable	Impermeable	NCCCCN(Cc1ccc2ccccc2n1)C[C@H]1Cc2ccccc2CN1
Impermeable	Impermeable	Cc1cnc(CN(CCCCN)C[C@H]2Cc3ccccc3CN2)c(C)c1
Impermeable	Impermeable	NCCCCN(Cc1nccs1)C[C@H]1Cc2ccccc2CN1
Impermeable	Impermeable	NCCCCN(Cc1ccc(F)cn1)C[C@H]1Cc2ccccc2CN1
Impermeable	Impermeable	NCCCCN(Cc1ccc(Cl)cn1)C[C@H]1Cc2ccccc2CN1
Impermeable	Impermeable	COc1ccc(CN(CCCCN)C[C@H]2Cc3ccccc3CN2)nc1
Impermeable	Impermeable	NCCCCN(Cc1cc(Cl)ccn1)C[C@H]1Cc2ccccc2CN1
Impermeable	Impermeable	COc1cccnc1CN(CCCCN)C[C@H]1Cc2ccccc2CN1
Impermeable	Impermeable	Cc1cccnc1CN(CCCCN)C[C@H]1Cc2ccccc2CN1
Impermeable	Impermeable	Cc1cccnc1[C@H](C)N(CCCCN)C[C@H]1Cc2ccccc2CN1
Impermeable	Impermeable	Cc1cnc(CN(CCCCN)C[C@H]2Cc3ccccc3CN2)c(F)c1
